pIC50: −log10 of the molar value. Activity calls are given as the source filed them. The rule behind the calls is not given here.
Experiments:
[1] = Metabolic stability in rat liver microsomes assessed as half-life measured upto 6 hrs in presence of NADPH generating system by HPLC-MS/MS analysis; type: ADME, Microsome
HT-29 [2] = test: Cell cycle arrest in human HT-29 cells assessed as accumulation of cells in G2/M phase at 5 nM measured after 24 hrs by PI staining based flow cytometry method; type: functional
[3] = Antitumor activity against mouse MCA-205 cells allografted in female C57BL/6 mouse assessed as tumor regression at […], IT(Intratumoral); type: functional
[4] = Metabolic stability in rat liver microsomes assessed as intrinsic clearance per mg protein measured upto 6 hrs in presence of NADPH generating system by HPLC-MS/MS analysis; type: ADME, Microsome; settings: read-out: CLH
MCF7 = test: Antiproliferative activity against human MCF7 cells after 72 hrs by CellTiter Glo assay; type: functional, cell-based; settings: MCF7, 72 h
MIA PaCa-2 = test: Antiproliferative activity against human MIA PaCa-2 cells after 72 hrs by CellTiter Glo assay; type: functional, cell-based; settings: MIA PaCa-2, 72 h
Histone deacetylase 8 = molecular target: T1, Histone deacetylase 8 (Homo sapiens, UniProt Q9BY41); test: Inhibition of HDAC8 (unknown origin) measured by fluorometry assay
T1 sequence (Q9BY41 whole entry): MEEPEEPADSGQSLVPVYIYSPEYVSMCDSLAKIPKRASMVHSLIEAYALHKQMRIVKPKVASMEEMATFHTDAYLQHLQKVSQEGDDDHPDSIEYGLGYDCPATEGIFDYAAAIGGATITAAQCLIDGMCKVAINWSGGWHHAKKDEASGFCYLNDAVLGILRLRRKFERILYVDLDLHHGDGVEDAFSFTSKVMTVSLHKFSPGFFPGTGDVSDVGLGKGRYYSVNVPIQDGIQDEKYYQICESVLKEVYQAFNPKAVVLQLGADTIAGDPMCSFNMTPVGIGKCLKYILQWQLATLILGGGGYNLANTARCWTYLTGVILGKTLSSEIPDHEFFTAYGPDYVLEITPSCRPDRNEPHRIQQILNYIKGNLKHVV

[5] = Antitumor activity against mouse MCA-205 cells allografted in female C57BL/6 mouse assessed as decrease in tumor growth at 0.25 to 0.5 mg/kg, IT(Intratumoral); type: functional; design: scale not given: the % may be the effect or the level left; settings: dose lower […], dose upper 0.5 mg/kg
HT-29 [6] = test: Antiproliferative activity against human HT-29 cells after 72 hrs by CellTiter Glo assay; type: functional, cell-based; settings: HT-29, 72 h
Tubulin (Homo sapiens) [7] = molecular target: T2, Tubulin (Homo sapiens) (UniProt P68371+Q9H4B7+P0DPH7+P68366+Q13509+Q71U36+P04350+Q3ZCM7+P07437+P68363+Q9BQE3+Q6PEY2+Q13885+Q9BVA1+Q9BUF5); test: Inhibition of tubulin polymerization in human MDA-MB-231 cells assessed as microtubule network polymerization at 250 nM after 30 mins by immunofluorescence analysis; type: cell-based
HT-29 [8] = test: Cell cycle arrest in human HT-29 cells assessed as accumulation of cells in G2/M phase at 0.1 to 5 nM measured after 24 hrs by PI staining based flow cytometry method; type: functional; settings: dose 0.1-5 nM, DDE = dose-dependent effect
Tubulin (Homo sapiens) [9] = molecular target: T2, Tubulin (Homo sapiens); test: Inhibition of tubulin polymerization in human HeLa cells assessed as microtubule network polymerization at 250 nM after 30 mins by immunofluorescence analysis; type: cell-based
SK-OV-3 = test: Antiproliferative activity against human SK-OV-3 cells after 72 hrs by CellTiter Glo assay; type: functional, cell-based; settings: SK-OV-3, 72 h
[10] = Antiproliferative activity against mouse MCA-205 cells after 72 hrs by CellTiter Glo assay; type: functional, cell-based; settings: MCA-205, 72 h
K562 = test: Antiproliferative activity against imatinib-resistant human K562 cells over expressing MDR1 after 72 hrs by CellTiter Glo assay; type: functional, cell-based; settings: K562, 72 h
[11] = Antitumor activity against mouse MCA-205 cells allografted in female C57BL/6 mouse assessed as increase in overall survival at 0.25 to 0.5 mg/kg, IT(Intratumoral); type: functional; settings: dose lower […], dose upper 0.5 mg/kg
HT-29 [12] = test: Induction of mitochondrial dysfunction in human HT-29 cells at 2 nM measured after 48 hrs by JC-1 staining based flow cytometry; type: functional, cell-based
HCT-116 = test: Antiproliferative activity against human HCT-116 cells after 72 hrs by CellTiter Glo assay; type: functional, cell-based; settings: Homo sapiens, HCT-116; time 72 hrs
A549 = test: Antiproliferative activity against human A549 cells after 72 hrs by CellTiter Glo assay; type: functional, cell-based; settings: A549, 72 h
Tubulin (Homo sapiens) [13] = molecular target: T2, Tubulin (Homo sapiens); test: Inhibition of tubulin polymerization (unknown origin) at 10 uM in presence of GTP; type: protein-complex assay
NCI-N87 = test: Antiproliferative activity against human NCI-N87 cells after 72 hrs by CellTiter Glo assay; type: functional, cell-based; settings: NCI-N87, 72 h

Work on `COc1ccc(N(C)c2cc(C#N)nc3ccccc23)cc1/C=C/C(=O)NO` yielded a half-life [1] of 6.6 h, an Activity (HT-29 [2]) greater than 95% and an Activity [3] of 40%. It also gave a microsomal CLint [4] of 1.75 µL/min/mg, a pIC50 (MCF7) of 9.11 and a pIC50 (MIA PaCa-2) of 9.03. For the same compound, the pIC50 (Histone deacetylase 8) was 6.82, the Activity [5] was 70% and the pIC50 (HT-29 [6]) was 9.21. The inhibition (Tubulin (Homo sapiens) [7]) was “Active”, the Activity (HT-29 [8]) was “Dde” and the inhibition (Tubulin (Homo sapiens) [9]) was “Active”. It also gave a pIC50 (SK-OV-3) of 9.22, a pIC50 [10] of 8.56 and a pIC50 (K562) of 9.25. The Activity [11] was 60%, the Activity (HT-29 [12]) was “Active” and the GI50 (HCT-116) was 0.5 nM. The pIC50 (A549) was 9.08, the inhibition (Tubulin (Homo sapiens) [13]) was “Active” and the pIC50 (NCI-N87) was 10.00.

From ChEMBL document CHEMBL5113481, “Design, synthesis and biological evaluation of quinoline-2-carbonitrile-based hydroxamic acids as dual tubulin polymerization and histone deacetylases inhibitors” (Eur J Med Chem, 2022)
